Reference: patent US20160184404A1, “NOVEL HEMOGLOBIN-DERIVED PEPTIDE BASED PHARMACEUTICAL COMPOSITIONS” (CLINIQUE LA PRAIRIE, priority 2014, published 2016)

What was measured:
Human MNC = assay: Stimulation of human MNC with MPLA in the presence of Hb-derived peptides, cytokine ELISA of supernatant; type: cell-based; conditions: for synergistic activity with MPLA, IL-6 release / synergistic activity in enhancing the MPLA-induced cytokine (IL-8) release, screen of native Hbγ1-peptide library: 20 h; for synergistic activity in enhancing the MPLA-induced cytokine (IL-8) release, screen of native Hbγ1-peptide library: MPLA 10 μg/ml, peptide 10 μM, FIG. 4
Protocol: Human mononuclear cells (MNC) were isolated from peripheral blood of healthy donors by density-gradient centrifugation on Ficoll gradient media (PAA Laboratories GmbH, Pasching, Austria). The cells were suspended and cultured in RPMI-1640 medium, containing […]. 50 μl of a peptide solution were incubated with 50 μl of a MPLA solution in a U-form 96 well micro cell culture plate #3799 (Corning Costar GmbH, Bodenheim, Germany) for 15 min at 37° C. After this incubation period 20 μl of heat-inactivated (56° C./30 min) human serum or RPMI-1640 medium were added. Finally, 80 μl of a MNC cell suspension was added to give a final concentration of 1 to 2×10^6 cells for culture in the absence of human serum or 1×10^6 cells for culture in the presence of serum. After a culture time of 20 h the cells were spun down and the culture supernatants were harvested. The cytokine concentrations in the supernatants were determined by matched antibody pairs for ELISA obtained from Invitrogen GmbH, Darmstadt (Germany). Mostly, each value represents the mean±SD of duplicate culture. In FIG. 3 the mean of three independent experiments is given, each of these three independent experiments having duplicate cultures.

Purified human monocytes = assay: Stimulation of purified human monocytes with MPLA in the presence of Hbγ1-peptides, IL-6 ELISA; type: cell-based; conditions: MPLA 1 μg/ml; peptide 1, 3, 10 μM; FIG. 9
Protocol: FIG. 9: Synergistic effect of Hbg-23 and Hbg-32 peptide on stimulation of human monocytes with MPLA. Purified human monocytes (>95%) were stimulated with MPLA (1 μg/ml) in the presence or absence of the Hbγ1-peptides Hbg-23 and Hbg-32-107 (1, 3 and 10 μM). Control cultures were kept without MPLA. After a culture period of 20 h, the IL-6 concentration in the supernatant was determined by ELISA. Each value represents the mean±SD of duplicate cultures.
Human mononuclear cells (MNC) were isolated from peripheral blood of healthy donors by density-gradient centrifugation on Ficoll gradient media (PAA Laboratories GmbH, Pasching, Austria). The cells were suspended and cultured in RPMI-1640 medium, containing […]. 50 μl of a peptide solution were incubated with 50 μl of a MPLA solution in a U-form 96 well micro cell culture plate #3799 (Corning Costar GmbH, Bodenheim, Germany) for 15 min at 37° C. After this incubation period 20 μl of heat-inactivated (56° C./30 min) human serum or RPMI-1640 medium were added. […] The cytokine concentrations in the supernatants were determined by matched antibody pairs for ELISA obtained from Invitrogen GmbH, Darmstadt (Germany). […]

human memory T-cell = assay: Stimulation of memory T-cells in human MNC with recall antigens PPD and TT, 3H-thymidine incorporation; type: cell-based; conditions: FIG. 20
Protocol: For stimulation of T-lymphocytes, human MNC were cultured in RPMI-1640 medium, containing […], and 10% of inactivated human serum at a concentration of 0.5 to 1.0×10^6 cells per ml in flat-bottom 96-well tissue culture plates. To investigate the adjuvant effect of MPLA and Hbg-peptides, the recall antigens tetanus toxoid (TT) and purified protein derivatives of M. tuberculosis (PPD) (both from Statens Serum Institute, Copenhagen, Danmark) were used. After 6 days of culture, cells were labeled with ^3H-Thymidine (3HTdR (2 Ci/mmol, 0.2 μCi/culture)) and after an additional day of culture the cells were harvested on glass-filter mats for measurement of incorporated radioactivity into the DNA. The results are expressed as mean±SD of duplicate cultures.
There is a close interaction between the innate immune system, as presented by e.g. monocytes and dendritic cells, and the adaptive immune system, as presented by T-lymphocytes and B-lymphocytes. Monocytes and dendritic cells present antigenic fragments to the cells of the adaptive immune system to initiate a specific immune reaction. In addition, they support the strength and polarization of the immune response by means of the release of cytokines. […]

[1] = Atomic force microscopy of MPLA dispersions; type: physicochemical; conditions: MPLA 25 μM on mica, alone or with equimolar peptide; after one hour
Protocol: Atomic force microscopy (AFM) allows a direct look onto the morphology of lipid aggregates on a molecular scale under almost physiological conditions. This allows obtaining depth profiles of MPLA dispersions down to a resolution limit of lower than 1 nm. For the analysis, MPLA dispersions were prepared at a concentration of 25 μM in physiological saline in the absence and presence of an equimolar content of Hbg-32.

[2] = Small angle X-ray scattering (SAXS) of MPLA aggregates; type: physicochemical
Protocol: SAXS measurements were performed at the European Molecular Biology Laboratory (EMBL) outstation at the Hamburg synchrotron radiation facility HASYLAB using the camera X33. Diffraction patterns in the range of the scattering vector 0.1<s<1.0 nm^−1 (s=2 sin θ/λ, 2θ scattering angle and A the wavelength=0.15 nm) were recorded at 40° C. with exposure times of 1 min using an image plate detector with online readout (MAR345, MarResearch, Norderstedt/Germany). The lipid concentration was in all cases 20 mM. The s-axis was calibrated with Ag-behenate, which has a periodicity of […]. The diffraction patterns were evaluated as described previously (Howe et al. (2008a)), assigning the spacing ratios of the main scattering maxima to defined three-dimensional structures. The lamellar and cubic structures are the most relevant here. The following features characterize the supramolecular structure: • (1) lamellar: The reflections are grouped in equidistant ratios, i.e., 1, ½, ⅓, ¼, etc. of the • lamellar repeat distance dλ; • (2) cubic: The different space groups of these non-lamellar three-dimensional structures differ in the ratio of their spacings. The relation between reciprocal spacing shkl=1/dhkl and lattice constant a is
shkl=[(h^2+k^2+l^2)/a]^1/2 • (hkl=Miller indices of the corresponding set of plane).

[3] = Freeze-fracture transmission electron microscopy of MPLA; type: physicochemical; conditions: MPLA 1 mM alone or with equimolar peptide; FIG. 25
Protocol: A small amount of the samples was sandwiched between two copper profiles and frozen by plunging the sandwiches immediately into liquefied ethane-propane-mixture cooled in liquid nitrogen. Fracturing and replication were performed at −150° C. in a BAF 400T freeze-fracture device (BAL-TEC, Balzers, Liechtenstein) equipped with electron guns and a film sheet thickness monitor. For replication Pt(C) was evaporated under an angle of 35° and (C) under 90°. The replicas were placed on copper grids and cleaned with a chloroform-methanol mixture.

[4] = MPLA 3 μg/ml, peptide 1, 3, 10 μM, FIG. 7, 10, 12, 15, 16, 29
[5] = MPLA 1 μg/ml, peptide 0.1-10 μM, FIG. 5, 19

## CVLAHHFGKEFTPPVQAAYQKVVAGVANAL (Hbb-67)
Human MNC; [4]
  synergistic activity with MPLA, IL-6 release: synergistically active in a similar range as Hbg-35-146m

## Hbg-23: native overlapping 15 or 16 amino acid peptide of human Hbγ1, printed Hbγ11-125 (VTVLAIHFGKEFTPE; Hbg-23)
Purified human monocytes
  synergism with MPLA in stimulating purified human monocytes, IL-6 release: synergize with MPLA
Human MNC; [5]
  synergistic activity with MPLA, IL-6 release: strong synergistic activity
Human MNC; MPLA 3 μg/ml, peptide 1, 3, 10 μM, with or without 10% human serum, FIG. 8, 14
  synergistic effect with MPLA in the absence and presence of human serum, IL-6 release: synergistic effects in the absence as well as in the presence of human serum
Human MNC
  synergistic activity in enhancing the MPLA-induced cytokine (IL-8) release, screen of native Hbγ1-peptide library: best hits
Human MNC; listed as No. 23
  synergistic activity in enhancing the MPLA-induced cytokine (IL-8) release, screen of native Hbγ1-peptide library: profound synergistic activities
Human MNC; second batch, data not shown
  synergistic effect with MPLA during induction of IL-release, second batch of peptide: no synergistic effect

## Hbg-24: native overlapping 15 or 16 amino acid peptide of human Hbγ1, Hbγ116-130 (IHFGKEFTPEVQASW; Hbg-24)
Human MNC; [5]
  synergistic activity with MPLA, IL-6 release: strong synergistic activity
Human MNC
  synergistic activity in enhancing the MPLA-induced cytokine (IL-8) release, screen of native Hbγ1-peptide library: best hits
Human MNC; listed as No. 24
  synergistic activity in enhancing the MPLA-induced cytokine (IL-8) release, screen of native Hbγ1-peptide library: profound synergistic activities

## Hbg-25: peptide of the native Hbγ1-peptide library that includes F122, E125 and V126 (EFTPEVQASWQKMVT; Hbg-25)
Human MNC
  synergistic activity in enhancing the MPLA-induced cytokine (IL-8) release, screen of native Hbγ1-peptide library: inactive

## Hbg-51: Hbg-35 alanine-scan peptide with Phe122/Ala-replacement (TVLAIHFGKEATPEVQASWQKMVTAVASAL; Hbg-51)
Human MNC; alanine-scan, MPLA 3 μg/ml, peptide 3 μM, FIG. 18
  effect of alanine replacement on the synergistic activity of Hbg-35 with MPLA, IL-6 release: enhanced the synergistic activity of Hbg-35

## Monophosphoryl lipid A [MPLA]
Human memory T-cell; PPD 1 μg/ml or TT 0.1 LF/ml, MPLA 10-1000 ng/ml
  adjuvant activity on the stimulation of T-memory cells with recall antigens: very effective adjuvant activity
Human memory T-cell; PPD or TT induced proliferation
  MPLA concentration sufficient to exert a nearly optimal adjuvant effect: ≤ 10 ng/mL
[1]
  morphology of MPLA aggregates (AFM): densely packed multi-lamellar aggregates with some hundred nm extension in z-direction
[2]; MPLA alone or in the presence of peptide, 40° C., FIG. 22
  aggregate structure of MPLA (SAXS): largely multi-lamellar
[2]; MPLA alone, FIG. 22A
  sharp reflection (multi-lamellar periodicity), SAXS: 4.11 nm
[3]
  morphology of MPLA aggregates (freeze-fracture electron microscopy): very densely and lamellar packed aggregates with large sizes in the micrometer range

## TPEVQASWQKMVTAVA [Hbg-69]
Human MNC; [5]
  synergistic activity with MPLA, IL-6 release: only a minute synergistic activity or no activity at all

## VLAIHFGKEFTPEVQASW [Hbg-68, Hbγ1[113-130], common part structure of peptides Hbg-32 to Hbg-39]
Human MNC; [5]
  synergistic activity with MPLA, IL-6 release: only a minute synergistic activity or no activity at all

## VTLAAHLPAEFTPAVHASLDKFLASVSTVL (Hba-66)
Human MNC; [4]
  synergistic activity with MPLA, IL-6 release: only a minimal synergistic activity
